Values quoted from earlier work in patent US20230019999A1, “COMBINATION DRUG” (Chugai Seiyaku Kabushiki Kaisha, priority 2019, published 2023).

Tested on: lung cancer cells positive for the CCDC6-RET fusion gene
Details: non-clinical studies, Non Patent Literatures 9 and 10

SMILES: CCc1cc2c(cc1N1CCC(N3CCOCC3)CC1)C(C)(C)c1[nH]c3cc(C#N)ccc3c1C2=O [Alectinib, 9-ethyl-6,6-dimethyl-8-[4-(morpholin-4-yl)-piperidin-1-yl]-11-oxo-6,11-dihydro-5H-benzo[b]carbazole-3-carbonitrile]
- anti-tumor effect: exhibit an anti-tumor effect
